Assay results published in patent EP1859794A1, “Sustained release supplements” (priority 2006, dated 2007).

Experiments:
physchem = format: physicochemical; conditions: simulated gastric solution, pH 4
Procedure: TABLE 2 Change in creatine with time at pH 4
The determination was based upon formation of creatinine under buffered incubation conditions. A solution of 1% creatine in simulated gastric solution (0.5% betain/pepsin in 1M HEPES buffer pH controlled with 5M HC1 and 5N NaOH). Creatinine determination performed by PDA spectrophotometer in kinetic mode, scanning at 15 sec intervals with an integration time of 0.5 sec. Detection in 1 cm path length flow call at 37°C with test analyte flowing at 1 ml/min. Reagents obtained from Sigma-Aldrich.

[1] = FTNIR / HPLC analysis of creatine and creatinine, as is or dry basis; format: physicochemical; conditions: before digestion simulation
Procedure: Tests on the coated Tablet prepared as described in Example 2 but with addition of 6% by tablet weight of PV/AP, creatine monohydrate powder and capsules of creatine monohydrate were carried out
These tests were done on an "AS IS or DRY BASIS.
Identification performed by FINIR, against in-house external library standards obtained from Sigma & produced by HPLC. / Quantification by FTNIR against external library standards obtained from Sigma & produced by HPLC
Bran & Luebbe InfraProver II FTNIR
Analysis performed by HPLC using Intersil ODS-2 5um (250x4.dmm) and 25 min. gradient elution with 0.1% phosphoric acid buffer in H2O and 0.1% phosphoric acid in acetonitrile. External reference standards obtained from Sigma-Aldrich.

[2] = Stamina and strength of athletes taking creatine (free weights and hammer strength machines); format: in vivo, human; conditions: two subjects
Procedure: Week 1-4: Two subjects were administered creatine monohydrate in powder form for four weeks. 2 grams were taken in the A.M. before breakfast.
No changes were made to diet and athletes were working out 4 times per week.
Stamina & Strength levels were monitored at the beginning of the study and every workout for 4 weeks.
A combination of free weights and hammer strength machines were used.
Week 5-8. Athletes discontinued creatine use. After 1 week the stomach bloat, bloating of the ankles and wrist, along with diarrhea and loose stools disappeared. About a 1% increase in strength was again noticed by the end of week 8, due to old fashioned hard work.
Week 9-12. Athletes were administered one 750 mg sustained released tablet in the a.m. and one 750 mg tablet in the afternoon. The breakdown of these tablets were 9 hours.

[3] = Digestion simulation in stomacher at pH 3 for 60 minutes, total creatine and creatinine levels; format: physicochemical
Procedure: 1 capsule of creatine (500 mg) and 500 mg of powder was used along with 1 tablet of 500 mg of Sustained Released Creatine.
All 3 products were placed in a stomacher at pH 3 for 60 minutes to simulate digestion. Stomacher contained 1 liter of fluid with pH being adjusted with hydrochloric acid to simulate digestion.
After 60 minutes of digestion simulation in stomacher, all 3 products were tested for: • Total Creatine levels • Total Creatinine levels

[4] = 2 grams in the A.M. before breakfast, week 1-4

SMILES: CN(CC(=O)O)C(=N)N [creatine]
- remaining at 15 s (physchem): 94%
- remaining at 0.5 min (physchem): 86%
- remaining at 45 s (physchem): 75%
- remaining at 1 min (physchem): 66%
- remaining at 75 s (physchem): 57%
- remaining at 0.025 h (physchem): 49%
- remaining at 105 s (physchem): 38%
- remaining at 2 min (physchem): 31%
- remaining at 135 s (physchem): 21%
- remaining at 2.5 min (physchem): 16%
- remaining at 165 s (physchem): 6%
- remaining at 0.05 h (physchem): 0.5%

SMILES: CN(CC(=O)O)C(=N)N.O [Creatine Powder, creatine monohydrate]
- Creatine [1]: Creatine 100.1%
- Creatinine [1]: Creatinine <200ppm
- side effects [2, 4]: Stomach bloating, bloating of the ankles and wrist, along with diarrhea and loose stools
- stamina increase [2, 4]: did not notice any stamina increase
- increase in strength ([2]; 2 grams in the A.M. before breakfast, week 1-4, not attributed to creatine): ~1%
- over all sense of tiredness ([2]; 2 grams in the A.M., week two through week four): set in after week two and lasted through week four
- pH of Stomacher after addition of product ([3]; 500 mg elemental creatine added to stomacher at pH 3, 1 liter of fluid): 3.5
- creatine converted to creatinine after 60 minutes (in words) ([3]; 500 mg, stomacher at pH 3, 60 minutes): all creatine being converted to creatinine
- degraded at 1 h ([3]; acidified fluid, 500 mg elemental creatine, stomacher at pH 3, 60 minutes, read-out: Total conversion to Creatinine after 60 minutes of digestion): 100%
